Reference: patent publication US12459951B2, “Compounds that interact with RAS superfamily proteins for treatment of cancers, inflammatory diseases, rasopathies, and fibrotic disease” (SHY Therapeutics, LLC, priority 2022, dated 2025)

What was measured:
[1] = test system: KRas Q61H mutant; assay: Ras GTP Binding Domain Inhibition Assay (Ras Superfamily Assay); details: 20 μM compound; for KRas Q61H mutant + SOS: % inh.: with SOS; for KRas Q61H mutant: % inh.: without SOS
Method in brief: (§1)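 Ni-plate capture of His-tagged protein (10-30 μg/mL, o/n 4° C); cpd 20 μM or dilution series, 1% DMSO, 3 h RT ± Sos 556-1049 last h; 100 nM Cy-labelled GTP 45 min RT; 3× wash; fluorescence read.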

[2] = test system: KRas G12C mutant; assay: as above; details: 20 μM compound; for KRas G12C mutant + SOS: % inh.: with SOS; for KRas G12C mutant: % inh.: without SOS
Method in brief: as §1

[3] = target: T1, Rac-1 (Homo sapiens, UniProt P63000); assay: as above; details: read-out: Rac-1: % inh.
T1 construct: made in house
Method in brief: as §1

[4] = test system: IL6; assay: IL-6 Quantification Assay (ELISA), LPS-stimulated RAW 264.7; type: cell-based; parameters: inhibition: dose or concentration left out as unconfirmed; details: Mus musculus, RAW264.7, read-out: IL-6: % inh.
[5] = test system: Smad2/Smad3 phosphorylation; assay: Phospho-Smad2/3 Inhibition Assay (western blot), Panc-1; type: cell-based, human; details: at 10 μM, Panc-1 pancreatic cancer cell line; starred symbols = activation
Method in brief: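 Panc-1 cells (KRas G12D), starved overnight in 0.5% FBS, treated 3 h at 37° C with compound at 10 μM final (0.3% DMSO) or serial dilutions for IC50, then stimulated with 10 ng/ml TGF-b1 for 1 h. Phospho-Smad2 (Ser465/467) and phospho-Smad3 (Ser423/425) detected by western blot.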

COc1cc(Nc2nc(-c3nccn3C)nn3cc(-c4cccnc4)c(C)c23)ncn1 [Compound 48, N-(6-Methoxypyrimidin-4-yl)-5-methyl-2-(1-methyl-1H-imidazol-2-yl)-6-(pyridin-3-yl)pyrrolo[2,1-f][1,2,4]triazin-4-amine]
KRas Q61H mutant + SOS: % inh. [1]: D (D = 76-100% inhibition)
KRas Q61H mutant: % inh. [1]: D (D = 76-100% inhibition)
KRas G12C mutant + SOS: % inh. [2]: A (A = 1-25% inhibition)
KRas G12C mutant: % inh. [2]: C (C = 50-75% inhibition)
inhibition at 20 µM [3]: 50 to 75%
inhibition [4]: 1 to 24%
% inh of Smad2/3 phosphorylation in Panc-1 [5]: B (B = 26-45% inhibition)

CO[C@H]1CC[C@@H](Nc2nc(-c3ccccn3)nn3cc(-c4ccn(C(C)C)n4)c(-c4ccccc4)c23)C1 (racemic) [Compound 24, rac 6-(1-Isopropyl-1H-pyrazol-3-yl)-N-((1R,3S)-3-methoxycyclopentyl)-5-phenyl-2-(pyridin-2-yl)pyrrolo[2,1-f][1,2,4]triazin-4-amine]
KRas Q61H mutant + SOS: % inh. [1]: 0 (0 = 0% inhibition)
KRas Q61H mutant: % inh. [1]: 0 (0 = 0% inhibition)
KRas G12C mutant + SOS: % inh. [2]: 0 (0 = 0% inhibition)
KRas G12C mutant: % inh. [2]: 0 (0 = 0% inhibition)
inhibition at 20 µM [3]: 0%
inhibition [4]: 25 to 49%
% inh of Smad2/3 phosphorylation in Panc-1 [5]: B (B = 26-45% inhibition)

COc1ccnc(Nc2nc(-c3nccn3C)nn3cc(-c4ccn(C(C)C)n4)c(C)c23)c1 [Compound 58, 6-(1-Isopropyl-1H-pyrazol-3-yl)-N-(4-methoxypyridin-2-yl)-5-methyl-2-(1-methyl-1H-imidazol-2-yl)pyrrolo[2,1-f][1,2,4]triazin-4-amine]
KRas Q61H mutant + SOS: % inh. [1]: D (D = 76-100% inhibition)
KRas Q61H mutant: % inh. [1]: C (C = 50-75% inhibition)
KRas G12C mutant + SOS: % inh. [2]: C (C = 50-75% inhibition)
KRas G12C mutant: % inh. [2]: D (D = 76-100% inhibition)
inhibition at 20 µM [3]: 76 to 100%
inhibition [4]: 25 to 49%
% inh of Smad2/3 phosphorylation in Panc-1 [5]: C (C = 46-75% inhibition)

COCCCNc1nc(-c2nccn2C)nn2cc(-c3cccc(OC)c3Cl)c(-c3ccccc3)c12 [Compound 30, 6-(2-Chloro-3-methoxyphenyl)-N-(3-methoxypropyl)-2-(1-methyl-1H-imidazol-2-yl)-5-phenylpyrrolo[2,1-f][1,2,4]triazin-4-amine]
KRas Q61H mutant + SOS: % inh. [1]: 0 (0 = 0% inhibition)
KRas Q61H mutant: % inh. [1]: 0 (0 = 0% inhibition)
KRas G12C mutant + SOS: % inh. [2]: 0 (0 = 0% inhibition)
KRas G12C mutant: % inh. [2]: A (A = 1-25% inhibition)
inhibition at 20 µM [3]: 0%
inhibition [4]: 75 to 100%
% inh of Smad2/3 phosphorylation in Panc-1 [5]: D (D = 76-100% inhibition)

COCCNc1nc(-c2nccn2C)nn2cc(-c3cccc(OC)c3Cl)c(-c3ccccc3)c12 [Compound 29, 6-(2-Chloro-3-methoxyphenyl)-N-(2-methoxyethyl)-2-(1-methyl-1H-imidazol-2-yl)-5-phenylpyrrolo[2,1-f][1,2,4]triazin-4-amine]
KRas Q61H mutant + SOS: % inh. [1]: 0 (0 = 0% inhibition)
KRas Q61H mutant: % inh. [1]: 0 (0 = 0% inhibition)
KRas G12C mutant + SOS: % inh. [2]: A (A = 1-25% inhibition)
KRas G12C mutant: % inh. [2]: 0 (0 = 0% inhibition)
inhibition at 20 µM [3]: 0%
inhibition [4]: 75 to 100%
% inh of Smad2/3 phosphorylation in Panc-1 [5]: D (D = 76-100% inhibition)

COc1ccc(Nc2nc(-c3nccn3C)nn3cc(-c4ccn(C(C)C)n4)c(C)c23)cn1 [Compound 71, 6-(1-Isopropyl-1H-pyrazol-3-yl)-N-(6-methoxypyridin-3-yl)-5-methyl-2-(1-methyl-1H-imidazol-2-yl)pyrrolo[2,1-f][1,2,4]triazin-4-amine]
KRas Q61H mutant + SOS: % inh. [1]: 0 (0 = 0% inhibition)
KRas Q61H mutant: % inh. [1]: 0 (0 = 0% inhibition)
KRas G12C mutant + SOS: % inh. [2]: A (A = 1-25% inhibition)
KRas G12C mutant: % inh. [2]: 0 (0 = 0% inhibition)
inhibition at 20 µM [3]: 1 to 25%
inhibition [4]: 0%
% inh of Smad2/3 phosphorylation in Panc-1 [5]: 0 (0 = 0% inhibition)

Cn1ccnc1-c1nc(OCCN2CCCC2)c2c(-c3ccccc3)ccn2n1 [Compound 41, 2-(1-Methyl-1H-imidazol-2-yl)-5-phenyl-4-(2-(pyrrolidin-1-yl)ethoxy)pyrrolo[2,1-f][1,2,4]triazine]
KRas Q61H mutant + SOS: % inh. [1]: 0 (0 = 0% inhibition)
KRas Q61H mutant: % inh. [1]: 0 (0 = 0% inhibition)
KRas G12C mutant + SOS: % inh. [2]: 0 (0 = 0% inhibition)
KRas G12C mutant: % inh. [2]: 0 (0 = 0% inhibition)
inhibition at 20 µM [3]: 0%
inhibition [4]: 1 to 24%
% inh of Smad2/3 phosphorylation in Panc-1 [5]: A* (A* = 1-25% activation)

CCn1ccc(-c2cn3nc(-c4nccn4C)nc(Nc4cc(OC)ncn4)c3c2C)n1 [Compound 64, 6-(1-Ethyl-1H-pyrazol-3-yl)-N-(6-methoxypyrimidin-4-yl)-5-methyl-2-(1-methyl-1H-imidazol-2-yl)pyrrolo[2,1-f][1,2,4]triazin-4-amine]
KRas Q61H mutant + SOS: % inh. [1]: D (D = 76-100% inhibition)
KRas Q61H mutant: % inh. [1]: D (D = 76-100% inhibition)
KRas G12C mutant + SOS: % inh. [2]: C (C = 50-75% inhibition)
KRas G12C mutant: % inh. [2]: D (D = 76-100% inhibition)
inhibition at 20 µM [3]: 76 to 100%
inhibition [4]: 1 to 24%
% inh of Smad2/3 phosphorylation in Panc-1 [5]: A (A = 1-25% inhibition)

COc1cccc(-c2cn3nc(-c4nccn4C)nc(N[C@H]4C[C@H](OC)C4)c3c2-c2ccccn2)c1F [Compound 45, 6-(2-Fluoro-3-methoxyphenyl)-N-((1r,3r)-3-methoxycyclobutyl)-2-(1-methyl-1H-imidazol-2-yl)-5-(pyridin-2-yl)pyrrolo[2,1-f][1,2,4]triazin-4-amine]
KRas Q61H mutant + SOS: % inh. [1]: D (D = 76-100% inhibition)
KRas Q61H mutant: % inh. [1]: D (D = 76-100% inhibition)
KRas G12C mutant + SOS: % inh. [2]: A (A = 1-25% inhibition)
KRas G12C mutant: % inh. [2]: B (B = 26-49% inhibition)
inhibition at 20 µM [3]: 50 to 75%
inhibition at 10 µM ([4]; at 10 μM): 75 to 100%
% inh of Smad2/3 phosphorylation in Panc-1 [5]: 0 (0 = 0% inhibition)

Cc1c(-c2ccn(C(C)C)n2)cn2nc(-c3nccn3C)nc(Nc3ccn(C(C)C)n3)c12 [Compound 72, N,6-bis(1-Isopropyl-1H-pyrazol-3-yl)-5-methyl-2-(1-methyl-1H-imidazol-2-yl)pyrrolo[2,1-f][1,2,4]triazin-4-amine]
KRas Q61H mutant + SOS: % inh. [1]: D (D = 76-100% inhibition)
KRas Q61H mutant: % inh. [1]: C (C = 50-75% inhibition)
KRas G12C mutant + SOS: % inh. [2]: C (C = 50-75% inhibition)
KRas G12C mutant: % inh. [2]: C (C = 50-75% inhibition)
inhibition at 20 µM [3]: 76 to 100%
inhibition [4]: 50 to 74%
% inh of Smad2/3 phosphorylation in Panc-1 [5]: 0 (0 = 0% inhibition)
